Reference: US20020042437A1 (priority 1997, published 2002)
Where two headings read alike, the source gives them in different places.

Test system: Phytophthora infestans
Type: in vivo
Conditions: single active ingredient, tomato leaves, infected next day, evaluated after 6 days

Row | Structure (SMILES) | Efficacy in % of the untreated control (0.25 ppm in the spray liquor) | Efficacy in % of the untreated control (0.5 ppm in the spray liquor) | Efficacy in % of the untreated control (1 ppm in the spray liquor)
1 | CO/N=C(/C(=O)OC)c1ccccc1COc1ccccc1C [Ia] | 0% | 0% | 0%
2 | CNC(=O)/C(=N/OC)c1ccccc1COc1cc(C)ccc1C [Ib] | 0% | – | –
3 | CCC(C)(NC(=O)c1cc(Cl)c(C)c(Cl)c1)C(=O)CCl (stereo not drawn) [Compound II.1] | 0% | 20% | –
